Legend:
[1] = system: A-549 cells; test: cell cycle distribution analysis, PI flow cytometry; assay type: cell-based; conditions: 5 μM, 24 h
Procedure: The antineoplastic agent 33 (5 μM) was used as a reference. […] Compound 24 caused a disruption of the cell cycle of A-549 cancer cells, indicated by a shift from the predominant G0/G1 phase (Figure 8A) to the apoptotic sub-G1 phase as well as the G2/M phase (Figure 8B). A similar G2/M arrest could be observed for reference compound 33 (Figure 8C); however, MCT1 inhibitor 24 led to a larger fraction of cells into the sub-G1 phase, indicating induced apoptosis. This experiment discovered that compound 24 inhibits cell proliferation, causing cell cycle arrest and, eventually, apoptosis. To confirm our findings, we conducted an apoptosis assay using compound 24.
A standard PI staining procedure was used as described earlier[44]−[46] to determine the effect of compounds 24 and 33 on cell cycle progression, followed by flow cytometry analysis (FACS Aria SORP and FACS Aria Fusion, BD Biosciences, Franklin Lakes, NJ). In brief, A-549 cells were seeded onto a 6-well plate (250,000 cells/well) and incubated for 24 h at 37 °C under a 5% CO2-humidified atmosphere before being observed under a microscope. The cells were treated with compound 24 (5 μM) or 33 (5 μM) and further incubated for 24 h at 37 °C under a 5% CO2-humidified atmosphere. Then, the cells were harvested and washed twice with cold PBS (Genetix Biotech Asia, New Delhi, India) before being fixed overnight in ice-cold 70% (v/v) ethanol at 4 °C. The cells were again washed two times with PBS and subsequently resuspended with RNase (100 μg/mL; HiMedia, Mumbai, India) and their DNA was stained with PI (40 μg/mL; Sigma-Aldrich, Mumbai, India) before being incubated in the dark for 10 min. The DNA content was measured at the Indian Institute of Technology Bombay (IITB, Mumbai, India) by applying flow cytometry.

[2] = system: ABCB1-expressing A2780/ADR cells; test: MTT-based efficacy (MDR-reversal) assay, 33 in combination with test compound, A2780/ADR; assay type: cell-based; conditions: A2780 ADR; 33 alone, 72 h; read-out: A2780/ADR cell toxicity 33 + 0.0 μM cmpd. GI50 ± SEM
Procedure: (§1) This sensitization is indicated by a shift of the concentration-effect curve of compound 33 from the right (=high concentrations of 33 needed to induce A2780/ADR cell death) to the left (=lower concentrations of 33 needed to induce A2780/ADR cell death). The concentration-effect curve of compound 33 in combination with 5 μM of either compound 24 or 30 resembles the concentration-effect curve of the sensitive cell line A2780. […] Thus, their potentiating effect with respect to the antiproliferative agent 33 against ABCB1-expressing A2780/ADR cells is due to the inhibition of ABCB1. Therefore, compounds 24 and 30 were dually effective against MCT1- and ABCB1-expressing cells (Table 5).
(§2) An MDR-reversal assay[2],[55]−[59] was used to investigate the ability to reverse ABCB1-mediated MDR in A2780/ADR cells toward the cytotoxic ABCB1 substrate 33. […] A dilution series of 33 at concentrations between 0.1 μM and 100 μM was generated, and 20 μL of each concentration was transferred onto the plates (final concentration: 0.01–10 μM). The plates were incubated for 72 h at 37 °C and a 5% CO2-humidified atmosphere, before subsequent processing with the regular MTT assay as described above. The observed effects of compounds 24 and 30 were compared to the effect of 33 alone on A2780/ADR cells as well as its sensitive counterpart A2780 (∼10,000 cells/well).

[3] = system: A2780 cells; test: MTT-based cell toxicity of 33 on sensitive A2780 cells; conditions: Homo sapiens, 33 alone, 72 h, read-out: A2780 cell toxicity 33 + 0.0 μM cmpd. GI50 ± SEM
Procedure: as §1, §2

[4] = system: MCT1-expressing A-549 cells; test: MTT-based efficacy assay, 33 in combination with test compound, A-549; assay type: cell-based; conditions: Homo sapiens, A549; 33 alone, 72 h; read-out: A-549 cell toxicity 33 + 0 nM test cmpd. GI50 ± SEM
Procedure: MCT1 inhibition anticipates challenging cancer cell energy supply and, thus, increases the efficacy of anticancer agents.
For this purpose, 10 μL of compounds 24 or 30 (50 nM, 100 nM, or 500 nM) was transferred onto a colorless flat-bottom 96-well microplate and complemented with 180 μL of a cell suspension containing either approximately 5,000 A-549 cells. A dilution series of compound 33 at concentrations between 50 nM and 50 μM was generated, and 10 μL of each concentration was transferred onto the plate. The observed effects of compounds 24 and 30 were compared to the effect of compound 33 alone on A-549. The plates were incubated for 72 h at 37 °C and a 5% CO2-humidified atmosphere, before subsequent processing with the regular MTT assay as described above.[43]

COc1cccc2c1C(=O)c1c(O)c3c(c(O)c1C2=O)C[C@@](O)(C(=O)CO)C[C@@H]3O[C@H]1C[C@H](N)[C@H](O)[C@H](C)O1 [Compound 33, doxorubicin, reference compound]
cells in G0/G1 phase [1]: 41.1%
cells in G2/M phase [1]: 26.2%
cells in S phase [1]: 27.4%
cells in Sub-G1 phase [1]: 4.00%
GI50 [2]: 802 ± 81 nM
GI50 [3]: 19.4 ± 1.7 nM
GI50 [4]: 47.6 ± 0.7 nM

Source: PMC9841531, “Indole Derivatives as New Structural Class of Potent and Antiproliferative Inhibitors of Monocarboxylate Transporter 1 (MCT1; SLC16A1)” (Journal of Medicinal Chemistry, 2022)
